Experimental data: patent US6423541B1, “Process for in vitro selection of high methol producing genotypes” (Council of Scientific&Industrial Reaearch, priority 2000, dated 2002)

What was measured:
Assay in all cases: Survival of in vitro raised shoots on menthol containing MS basal medium
Type in all cases: cell-based
[1] = test system: regenerated shoots of Mentha arvensis variety Gomti
From the text: (§1) The plant varieties analysed were Himalaya, Shivalik, Gomti, MAS-1, Kosi, Kalka of Mentha arvensis L. (2n=96). The suckers of these plant varieties were obtained from CIMAP's national gene bank for medicinal and aromatic plants for planting. The explant materials were collected from the field grown plants and surface sterilized by washing sequentially with 2% detergent, distilled water containing a few drops of Savlon (Johnson and Johnson, India), 0.1% acidified mercuric chloride and autoclaved distilled water before inoculation. About 1 cm long internodal pieces were inoculated in the MS medium (Murasighe and Skoog, 1962) containing vitamins, 100 mg l^−1 myo-inositol 3% wv^−1 sucrose, 1.5% wv^−1 agar (Difco), 0.5 .μg ml^−1 of an auxin, (NAA, 1-napthalene acetic acid) and 5 μg ml^−1 of a cytokinin (BAP, benzyl aminopurine) (Shasany et al, 1998). The cultures were grown at 25±2° C. and 400 to 600 lux light intensity with 16 h photoperiod. The regenerated shoots were separated 12 weeks after the explant inoculation for rooting and/or testing menthol tolerance.
(§2) The regenerated shoots (3-4 cm long, containing the apical bud and 2-3 nodes) separated after 12 weeks, were inoculated into MS basal medium with or without menthol (0 to 100 μg ml^−1). Concentration of menthol in each treatment was stepped up by 10 μg in a sequential manner. On each kind of these media, 5 independently regenerated shoots were inoculated per flask; 4 flasks were inoculated per replication and each treatment was replicated 5 times, making the number of flasks to 20 and number of explants to 100 for each concentration of menthol. The experiment was conducted in the completely randomized design (CRD) fashion. Cultures were incubated and maintained at 25±2° C. and 400-600 lux light intensity with 16-hour photoperiod. The wilting response and lethality in explants was recorded every 24 hours over a period of one week.

[2] = test system: regenerated shoots of Mentha arvensis variety Himalaya
From the text: as §1, §2

[3] = test system: regenerated shoots of Mentha arvensis variety Kalka
From the text: as §1, §2

[4] = test system: regenerated shoots of Mentha arvensis variety Kosi
From the text: as §1, §2

[5] = test system: regenerated shoots of Mentha arvensis variety MAS-1
From the text: as §1, §2

[6] = test system: regenerated shoots of Mentha arvensis variety Shivalik
From the text: as §1, §2

[7] = 100-ppm menthol, twenty-four hours after incubation
[8] = menthol 10 μg ml^−1, 20 shoots tested per replication
[9] = menthol 20 μg ml^−1, 20 shoots tested per replication
[10] = menthol 30 μg ml^−1, 20 shoots tested per replication
[11] = menthol 40 μg ml^−1, 20 shoots tested per replication
[12] = menthol 50 μg ml^−1, 20 shoots tested per replication
[13] = menthol 60 μg ml^−1, 20 shoots tested per replication
[14] = menthol 70 μg ml^−1, 20 shoots tested per replication
[15] = menthol 80 μg ml^−1, 20 shoots tested per replication
[16] = menthol 90 μg ml^−1, 20 shoots tested per replication
[17] = menthol 100 μg ml^−1, 20 shoots tested per replication

CC1CCC(C(C)C)C(O)C1 (stereo not shown) [menthol]
lethality [1, 7]: 99% | Survival after 7 days Number ([1]; menthol 10 μg ml^−1): 20.0 ± 0.00 | Survival after 24 hours Number [1, 8]: 20.0 ± 0.00 | Survival after 7 days Number ([1]; menthol 20 μg ml^−1): 20.0 ± 0.00 | Survival after 24 hours Number [1, 9]: 20.0 ± 0.00 | Survival after 7 days Number ([1]; menthol 30 μg ml^−1): 20.0 ± 0.00 | Survival after 24 hours Number [1, 10]: 20.0 ± 0.00 | Survival after 7 days Number ([1]; menthol 40 μg ml^−1): 16.8 ± 0.48 | Survival after 24 hours Number [1, 11]: 20.0 ± 0.00 | Survival after 7 days Number ([1]; menthol 50 μg ml^−1): 7.0 ± 0.41 | Survival after 24 hours Number [1, 12]: 16.0 ± 0.90 | Survival after 7 days Number ([1]; menthol 60 μg ml^−1): 4.0 ± 0.57 | Survival after 24 hours Number [1, 13]: 12.0 ± 0.71 | Survival after 7 days Number ([1]; menthol 70 μg ml^−1): 0.4 ± 0.32 | Survival after 24 hours Number [1, 14]: 6.0 ± 0.32 | Survival after 7 days Number ([1]; menthol 80 μg ml^−1): 0.0 ± 0.00 | Survival after 24 hours Number [1, 15]: 1.6 ± 0.31 | Survival after 7 days Number ([1]; menthol 90 μg ml^−1): 0.0 ± 0.00 | Survival after 24 hours Number [1, 16]: 1.0 ± 0.41 | Survival after 7 days Number ([1]; menthol 100 μg ml^−1): 0.0 ± 0.00 | Survival after 24 hours Number [1, 17]: 0.2 ± 0.26 | lethality [2, 7]: 100% | Survival after 7 days Number ([2]; menthol 10 μg ml^−1): 20.0 ± 0.00 | Survival after 24 hours Number [2, 8]: 20.0 ± 0.00 | Survival after 7 days Number ([2]; menthol 20 μg ml^−1): 20.0 ± 0.00 | Survival after 24 hours Number [2, 9]: 20.0 ± 0.00 | Survival after 7 days Number ([2]; menthol 30 μg ml^−1): 20.0 ± 0.00 | Survival after 24 hours Number [2, 10]: 20.0 ± 0.00 | Survival after 7 days Number ([2]; menthol 40 μg ml^−1): 17.6 ± 0.66 | Survival after 24 hours Number [2, 11]: 20.0 ± 0.00 | Survival after 7 days Number ([2]; menthol 50 μg ml^−1): 9.0 ± 0.41 | Survival after 24 hours Number [2, 12]: 17.0 ± 0.91 | Survival after 7 days Number ([2]; menthol 60 μg ml^−1): 2.0 ± 0.41 | Survival after 24 hours Number [2, 13]: 14.0 ± 0.91 | Survival after 7 days Number ([2]; menthol 70 μg ml^−1): 0.2 ± 0.26 | Survival after 24 hours Number [2, 14]: 9.0 ± 0.91 | Survival after 7 days Number ([2]; menthol 80 μg ml^−1): 0.0 ± 0.00 | Survival after 24 hours Number [2, 15]: 4.0 ± 0.58 | Survival after 7 days Number ([2]; menthol 90 μg ml^−1): 0.0 ± 0.00 | Survival after 24 hours Number [2, 16]: 2.0 ± 0.40 | Survival after 7 days Number ([2]; menthol 100 μg ml^−1): 0.0 ± 0.00 | Survival after 24 hours Number [2, 17]: 0.0 ± 0.00 | lethality [3, 7]: 98% | Survival after 7 days Number ([3]; menthol 10 μg ml^−1): 20.0 ± 0.00 | Survival after 24 hours Number [3, 8]: 20.0 ± 0.00 | Survival after 7 days Number ([3]; menthol 20 μg ml^−1): 20.0 ± 0.00 | Survival after 24 hours Number [3, 9]: 20.0 ± 0.00 | Survival after 7 days Number ([3]; menthol 30 μg ml^−1): 20.0 ± 0.00 | Survival after 24 hours Number [3, 10]: 20.0 ± 0.00 | Survival after 7 days Number ([3]; menthol 40 μg ml^−1): 17.6 ± 0.66 | Survival after 24 hours Number [3, 11]: 20.0 ± 0.00 | Survival after 7 days Number ([3]; menthol 50 μg ml^−1): 13.8 ± 0.86 | Survival after 24 hours Number [3, 12]: 19.4 ± 0.52 | Survival after 7 days Number ([3]; menthol 60 μg ml^−1): 10.0 ± 0.91 | Survival after 24 hours Number [3, 13]: 17.0 ± 0.41 | Survival after 7 days Number ([3]; menthol 70 μg ml^−1): 4.0 ± 0.81 | Survival after 24 hours Number [3, 14]: 11.0 ± 0.58 | Survival after 7 days Number ([3]; menthol 80 μg ml^−1): 0.0 ± 0.00 | Survival after 24 hours Number [3, 15]: 6.0 ± 0.82 | Survival after 7 days Number ([3]; menthol 90 μg ml^−1): 0.0 ± 0.00 | Survival after 24 hours Number [3, 16]: 3.0 ± 0.36 | Survival after 7 days Number ([3]; menthol 100 μg ml^−1): 0.0 ± 0.00 | Survival after 24 hours Number [3, 17]: 0.4 ± 0.26 | lethality [4, 7]: 99% | Survival after 7 days Number ([4]; menthol 10 μg ml^−1): 20.0 ± 0.00 | Survival after 24 hours Number [4, 8]: 20.0 ± 0.00 | Survival after 7 days Number ([4]; menthol 20 μg ml^−1): 20.0 ± 0.00 | Survival after 24 hours Number [4, 9]: 20.0 ± 0.00 | Survival after 7 days Number ([4]; menthol 30 μg ml^−1): 20.0 ± 0.00 | Survival after 24 hours Number [4, 10]: 20.0 ± 0.00 | Survival after 7 days Number ([4]; menthol 40 μg ml^−1): 18.0 ± 0.41 | Survival after 24 hours Number [4, 11]: 20.0 ± 0.00 | Survival after 7 days Number ([4]; menthol 50 μg ml^−1): 10.0 ± 0.52 | Survival after 24 hours Number [4, 12]: 17.0 ± 0.41 | Survival after 7 days Number ([4]; menthol 60 μg ml^−1): 8.0 ± 0.82 | Survival after 24 hours Number [4, 13]: 15.0 ± 0.91 | Survival after 7 days Number ([4]; menthol 70 μg ml^−1): 1.0 ± 0.40 | Survival after 24 hours Number [4, 14]: 7.0 ± 0.82 | Survival after 7 days Number ([4]; menthol 80 μg ml^−1): 0.0 ± 0.00 | Survival after 24 hours Number [4, 15]: 3.0 ± 0.41 | Survival after 7 days Number ([4]; menthol 90 μg ml^−1): 0.0 ± 0.00 | Survival after 24 hours Number [4, 16]: 2.0 ± 0.32 | Survival after 7 days Number ([4]; menthol 100 μg ml^−1): 0.0 ± 0.00 | Survival after 24 hours Number [4, 17]: 0.2 ± 0.32 | survival ([5]; 80 ppm menthol, after 7 days of incubation): 2% | lethality [5, 7]: 98% | Survival after 7 days Number ([5]; menthol 10 μg ml^−1): 20.0 ± 0.00 | Survival after 24 hours Number [5, 8]: 20.0 ± 0.00 | Survival after 7 days Number ([5]; menthol 20 μg ml^−1): 20.0 ± 0.00 | Survival after 24 hours Number [5, 9]: 20.0 ± 0.00 | Survival after 7 days Number ([5]; menthol 30 μg ml^−1): 20.0 ± 0.00 | Survival after 24 hours Number [5, 10]: 20.0 ± 0.00 | Survival after 7 days Number ([5]; menthol 40 μg ml^−1): 18.0 ± 0.57 | Survival after 24 hours Number [5, 11]: 20.0 ± 0.00 | Survival after 7 days Number ([5]; menthol 50 μg ml^−1): 13.4 ± 0.66 | Survival after 24 hours Number [5, 12]: 19.0 ± 0.57 | Survival after 7 days Number ([5]; menthol 60 μg ml^−1): 10.0 ± 0.91 | Survival after 24 hours Number [5, 13]: 16.0 ± 0.57 | Survival after 7 days Number ([5]; menthol 70 μg ml^−1): 3.0 ± 0.58 | Survival after 24 hours Number [5, 14]: 10.0 ± 0.82 | Survival after 7 days Number ([5]; menthol 80 μg ml^−1): 0.4 ± 0.32 | Survival after 24 hours Number [5, 15]: 5.0 ± 0.41 | Survival after 7 days Number ([5]; menthol 90 μg ml^−1): 0.0 ± 0.00 | Survival after 24 hours Number [5, 16]: 3.0 ± 0.32 | Survival after 7 days Number ([5]; menthol 100 μg ml^−1): 0.0 ± 0.00 | Survival after 24 hours Number [5, 17]: 0.4 ± 0.32 | lethality [6, 7]: 98% | Survival after 7 days Number ([6]; menthol 10 μg ml^−1): 20.0 ± 0.00 | Survival after 24 hours Number [6, 8]: 20.0 ± 0.00 | Survival after 7 days Number ([6]; menthol 20 μg ml^−1): 20.0 ± 0.00 | Survival after 24 hours Number [6, 9]: 20.0 ± 0.00 | Survival after 7 days Number ([6]; menthol 30 μg ml^−1): 20.0 ± 0.00 | Survival after 24 hours Number [6, 10]: 20.0 ± 0.00 | Survival after 7 days Number ([6]; menthol 40 μg ml^−1): 18.0 ± 0.41 | Survival after 24 hours Number [6, 11]: 20.0 ± 0.00 | Survival after 7 days Number ([6]; menthol 50 μg ml^−1): 11.0 ± 0.41 | Survival after 24 hours Number [6, 12]: 18.0 ± 0.91 | Survival after 7 days Number ([6]; menthol 60 μg ml^−1): 5.0 ± 0.71 | Survival after 24 hours Number [6, 13]: 15.0 ± 0.11 | Survival after 7 days Number ([6]; menthol 70 μg ml^−1): 2.0 ± 0.32 | Survival after 24 hours Number [6, 14]: 8.0 ± 0.91 | Survival after 7 days Number ([6]; menthol 80 μg ml^−1): 0.0 ± 0.00 | Survival after 24 hours Number [6, 15]: 4.0 ± 0.41 | Survival after 7 days Number ([6]; menthol 90 μg ml^−1): 0.0 ± 0.00 | Survival after 24 hours Number [6, 16]: 2.0 ± 0.41 | Survival after 7 days Number ([6]; menthol 100 μg ml^−1): 0.0 ± 0.00 | Survival after 24 hours Number [6, 17]: 0.4 ± 0.32
